Data from ChEMBL document CHEMBL1157961, “Nitrogen-containing phorbol esters from Croton ciliatoglandulifer and their effects on cyclooxygenases-1 and -2” (J Nat Prod, 2006).

Tests used:
[1] = target: T1, Prostaglandin G/H synthase 2 (Homo sapiens, UniProt P35354); experiment: Inhibition of human recombinant COX2
T1 sequence (P35354 whole entry): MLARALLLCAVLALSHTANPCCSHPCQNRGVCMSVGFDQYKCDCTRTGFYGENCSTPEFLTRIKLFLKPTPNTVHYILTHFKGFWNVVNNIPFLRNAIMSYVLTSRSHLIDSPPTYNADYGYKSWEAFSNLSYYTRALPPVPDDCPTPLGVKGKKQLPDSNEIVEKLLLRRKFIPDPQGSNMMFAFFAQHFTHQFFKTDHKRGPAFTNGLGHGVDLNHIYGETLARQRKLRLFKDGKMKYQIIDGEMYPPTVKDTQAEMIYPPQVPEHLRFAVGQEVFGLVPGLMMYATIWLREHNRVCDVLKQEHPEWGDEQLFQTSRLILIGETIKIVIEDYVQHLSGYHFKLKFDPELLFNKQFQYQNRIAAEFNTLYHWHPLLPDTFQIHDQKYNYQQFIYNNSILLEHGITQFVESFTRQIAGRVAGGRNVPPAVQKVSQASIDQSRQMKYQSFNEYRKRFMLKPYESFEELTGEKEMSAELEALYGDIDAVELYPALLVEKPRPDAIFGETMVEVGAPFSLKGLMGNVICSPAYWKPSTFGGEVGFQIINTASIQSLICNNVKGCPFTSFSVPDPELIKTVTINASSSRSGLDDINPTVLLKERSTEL

[2] = target: T2, Prostaglandin G/H synthase 1 (Ovis aries, UniProt P05979); experiment: Inhibition of ovine COX1
T2 sequence (P05979 whole entry): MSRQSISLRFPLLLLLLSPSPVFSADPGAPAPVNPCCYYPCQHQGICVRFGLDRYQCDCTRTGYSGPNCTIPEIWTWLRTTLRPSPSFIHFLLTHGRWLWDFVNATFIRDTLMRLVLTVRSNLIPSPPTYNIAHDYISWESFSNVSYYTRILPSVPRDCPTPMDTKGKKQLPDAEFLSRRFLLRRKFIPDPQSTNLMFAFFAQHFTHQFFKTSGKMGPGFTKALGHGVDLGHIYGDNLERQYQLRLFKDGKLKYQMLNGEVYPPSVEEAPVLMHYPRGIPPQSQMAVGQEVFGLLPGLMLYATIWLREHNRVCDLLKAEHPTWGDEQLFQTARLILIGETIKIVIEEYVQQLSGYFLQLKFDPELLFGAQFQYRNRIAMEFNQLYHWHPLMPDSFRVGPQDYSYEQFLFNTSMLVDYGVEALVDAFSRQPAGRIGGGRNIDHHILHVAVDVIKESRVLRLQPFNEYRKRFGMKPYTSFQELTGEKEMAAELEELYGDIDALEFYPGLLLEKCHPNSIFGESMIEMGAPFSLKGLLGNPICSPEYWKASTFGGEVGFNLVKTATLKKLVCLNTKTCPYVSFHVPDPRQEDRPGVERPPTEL

| SMILES | IC50 [1] [nM] | IC50 [2] [nM] |
| --- | --- | --- |
| CC(=O)O[C@@]12[C@H](OC(=O)C(=C(C)C)N(C)C)[C@@H](C)[C@]3(O)[C@@H]4C=C(C)C(=O)[C@@H]4CC(CO)=C[C@H]3[C@@H]1C2(C)C | > 100000 |  |
| CC(=O)O[C@@]12[C@H](OC(=O)[C@@H](C(C)C)N(C)C)[C@@H](C)[C@@]3(O)[C@@H](C=C(CO)C[C@@]4(O)C(=O)C(C)=C[C@@H]34)[C@@H]1C2(C)C | 2200 | 1 |
| CC(=O)O[C@@]12[C@H](OC(=O)[C@@H](C(C)C)N(C)C)[C@@H](C)[C@]3(O)[C@@H]4C=C(C)C(=O)[C@@H]4CC(CO)=C[C@H]3[C@@H]1C2(C)C | 2200 | 1 |
| CC(=O)O[C@@]12[C@H](OC(=O)[C@H](C(C)C)N(C)C)[C@@H](C)[C@]3(O)[C@@H]4C=C(C)C(=O)[C@@H]4CC(CO)=C[C@H]3[C@@H]1C2(C)C | > 100000 | > 100000 |
